Eleven molecules from ChEMBL document CHEMBL1145291, “Metal complexes with superoxide dismutase-like activity as candidates for anti-prion drug” (Bioorg Med Chem Lett, 2006) can be followed below.

For series [1], the system named is ScN2a. Description: Inhibition of PrP-res formation in mouse ScN2a cells relative to control. Type of series: functional, cell-based.
The nature of series [2]: Inhibition of PrP-res formation in prion Fukuoka1 strain infected mouse N2a#58 cells relative to control. It is filed as functional.
Series [3] has as its system ScN2a. Description: Cytotoxicity against mouse ScN2a cells up to 1 uM. It is filed as cell-based.
Series [4] can be described thus: Cytotoxicity against prion Fukuoka1 strain infected mouse N2a#58 cells up to 1uM. Type of series: cell-based.
The test system of series [5] is ScN2a. Briefly: Cytotoxicity against mouse ScN2a cells at 100 uM. It is filed as cell-based.
A short description of series [6]: Cytotoxicity against prion Fukuoka1 strain infected mouse N2a#58 cells at 100 uM. Type of series: cell-based.

For orientation: IC50 means the concentration needed to halve the response being measured. A low value points to greater potency. `C[n+]1ccc(-c2c3nc(c(-c4cc[n+](C)cc4)c4ccc([nH]4)c(-c4cc[n+](C)cc4)c4nc(c(-c5cc[n+](C)cc5)c5ccc2[nH]5)C=C4)C=C3)cc1`: the values for the IC50 (in the series with ScN2a [1]; in series [2]) were 0.13 µM and 0.16 µM, respectively.
On to `c1ccc2cc(-c3ccc4ccccc4n3)ncc2c1`, for which the IC50 came out at 0.005 µM in the series on ScN2a [1] and 0.25 µM in series [2]. The Activity entry (in the series on ScN2a [3]; in series [4]) was “Not Active” each time.
With `O=C([O-])c1cc(-c2cc(C(=O)[O-])c3ccccc3n2)nc2ccccc12.[Na+].[Na+]`, the Activity entry (in the series with ScN2a [3]; in series [4]) was “Not Active” throughout.
In the case of `O=C(O)c1ccc(-c2c3nc(c(-c4ccc(C(=O)O)cc4)c4ccc([nH]4)c(-c4ccc(C(=O)O)cc4)c4ccc([nH]4)c(-c4ccc(C(=O)O)cc4)c4nc2C=C4)C=C3)cc1`, the results for the IC50 (with ScN2a [1]; in series [2]) were 0.25 µM and 0.16 µM, respectively.
On to `Cc1cc(-c2ccccc2)c2ccc3c(-c4ccccc4)cc(C)nc3c2n1` [BATHOCUPROINE], for which the IC50 in the series on ScN2a [1] is 0.08 µM; in series [2] it was 0.2 µM. The Activity result (in the series with ScN2a [3]; in series [4]) was “Not Active” in each case.
`Cc1ccc2ccc3ccc(C)nc3c2n1` [NEOCUPROINE]: the IC50 in the series with ScN2a [1] is 0.08 µM. The Activity result (with ScN2a [3]; in series [4]) was “Not Active” each time.
With `Oc1cccc2cccnc12` [OXYQUINOLINE], the outcome (in the series with ScN2a [5]; in series [6]) was Active.
For the molecule `c1cnc2c(c1)ccc1cccnc12` [PHENANTHROLINE], the outcome (with ScN2a [5]; in series [6]) was Active.
As for `c1ccc(-c2cccc(-c3ccccn3)n2)nc1` [TERPYRIDINE], the outcome (in the series on ScN2a [5]; in series [6]) was Active.
Regarding `O=S(=O)(O)c1ccc(-c2c3nc(c(-c4ccc(S(=O)(=O)O)cc4)c4ccc([nH]4)c(-c4ccc(S(=O)(=O)O)cc4)c4ccc([nH]4)c(-c4ccc(S(=O)(=O)O)cc4)c4nc2C=C4)C=C3)cc1` [TETRAPHENYLPORPHINE TETRASULFONIC ACID], the results for the IC50 (in the series with ScN2a [1]; in series [2]) were 0.2 µM and 0.16 µM, respectively.
The corresponding values for `C1=Cc2nc1c(-c1ccccc1)c1nc(c(-c3ccccc3)c3ccc([nH]3)c(-c3ccccc3)c3ccc([nH]3)c2-c2ccccc2)C=C1` [TETRAPHENYLPORPHYRIN] are 0.01 µM and 0.32 µM.
